The source of these data is article PMC5698418 (Nature Communications, 2017).

Structures can show the parent of a compound that is named as a salt. Where two headings read alike, the source gives them in different places.

In data set [1] the test system is BDNF-induced nuclear Arc expression in primary cortical neurons. In words: Chemogenomic screen: high-content image-based assay of BDNF-induced nuclear Arc expression (96-well). In kind it is cell-based, mouse. The method, boiled down: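 DIV13 mouse primary cortical neurons (30,000 cells/well) are treated with compound at 16.7 µM and BDNF, in three biological replicates. Arc and acetyl-H3K9 are immunostained and imaged at ×40, and nuclear Arc signal is quantified automatically using acetyl-H3K9 as the nuclear mask.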

In data set [2] the test system is Neuro2a cells. Conditions: for Fold-change to WT: protein half-life in Neuro2a. An excerpt:
Next, we aimed to determine whether the K24, K33, K55, and K70 residues participate in Arc protein turnover. […] We also included K70 in this experiment because of its position in the coiled-coil and nuclear retention domains of Arc (Fig. 5e) as well as its relative proximity to K55. For this test, we used site-directed mutagenesis to generate plasmids that would allow overexpression of an acetyl-mimic/unmodifiable mutant Arc-Myc-FLAG protein (lysine (K) to glutamine (Q) mutant) for each of these four sites. After transfecting sets of Neuro2a cells with these different constructs, we inhibited translation with CHX and monitored overexpressed protein levels for up to 6 h after.
Lysates were collected at the indicated time points and Arc-Myc-FLAG protein level analyzed in every sample by western blotting with an anti-FLAG antibody. Representative western blots are presented on top and quantification of data normalized to corresponding β-actin and presented as percentage of Arc-Myc-FLAG level (±SEM) at the initial time point after CHX application (t = 0). Curve represents exponential decay fit. b Estimate of protein half-life Arc for WT Arc-Myc-FLAG and each acetyl-mimic mutant is presented in table. c WT and acetyl-mutant Arc-Myc-FLAG polyubiquitination was determined in lysates from overexpressing Neuro2a cells. Lysates were immunoprecipitated with anti-FLAG and western blotted with anti-Ub or anti-Arc as indicated.
Neuro2A cells were cultured in DMEM (supplemented with 10% fetal bovine serum (Gemini-Bio-Products, West Sacramento, CA), penicillin (50 units ml^−1), and streptomycin (50 µg ml^−1)) and transfected overnight using Lipofectamine 2000 (Invitrogen) according to the manufacturer’s protocol. The Neuro2A cell line was generously shared by Dr. Grace Gill.
The pCMV6-Arc-Myc-DDK (FLAG) plasmid (MR206218) was purchased from OriGene Biotechnologies (Rockville, MD). The Arc-Myc-FLAG K24Q, K24R, K33Q, K55Q, K70Q, and K70R plasmids were generated with the help of the Q5 Site-Directed Mutagenesis Kit from New England BioLabs (Ipswich, MA) using WT pCMV6-Arc-Myc-FLAG as template. All constructs were verified by DNA sequencing.

Setting [3] is: BDNF-induced nuclear Arc expression, primary cortical neurons, chemogenomic screen.
Setting [4] is: chemogenomic (SMART) screen, BDNF-induced nuclear Arc expression, primary cortical neurons, BDNF control 19.5.
The mark [5] stands for this setting: nuclear Arc-positive cells relative to DMSO + BDNF control, negative values = decrease.

Consider `Cc1ccsc1C(=CCCN1CCC[C@@H](C(=O)O)C1)c1sccc1C` [Tiagabine], for which, in data set [1] (setting [3]), the “Percentage of cell with nuclear Arc immunostaining above 2σ threshold” value (“Percentage of cell” below) is recorded as 7.4%.

For `CCN(CC)CCNC(=O)c1cc(S(C)(=O)=O)ccc1OC` [Tiapride hydrochloride], the “Percentage of cell” value in data set [1] (setting [4]) is on record as 20.9%. Moreover, the “Fold-change — Normalized to DMSO control (BDNF)” value (“Fold-change — Normalized” below) in data set [1] (setting [5]) turned out to be 1.1 fold. On the same counts, the results for `Clc1ccc2nsnc2c1NC1=NCCN1` [Tizanidine] are 35.8% and 1.8 fold.

In the case of `CC1(C)O[C@@H]2[C@@H](CO[C@@]3(COS(N)(=O)=O)OC(C)(C)O[C@@H]23)O1` [Topiramate], in data set [1] (setting [3]), the “Percentage of cell” value is 8.8%. With `COc1cccc(C2(O)CCCCC2CN(C)C)c1` (stereo not drawn) [Tramadol], the “Percentage of cell” value in data set [1] is 7.5%.

Consider `N[C@@H]1C[C@H]1c1ccccc1` [Tranylcypromine hydrochloride], for which the “Percentage of cell” value in data set [1] (setting [4]) was found to be 26.6%. Further, the “Fold-change — Normalized” value in data set [1] (setting [5]) was found to be 1.4 fold. `CN1CCN(CCCN2c3ccccc3Sc3ccc(C(F)(F)F)cc32)CC1` [Trifluoperazine]: the “Percentage of cell” value in data set [1] (setting [3]) worked out at 0.0%. As for `CC(CN(C)C)CN1c2ccccc2CCc2ccccc21` (stereo not drawn) [Trimipramine maleate], in data set [1] (setting [4]), the “Percentage of cell” value amounted to 21.9%. The “Fold-change — Normalized” value in data set [1] (setting [5]) amounted to 1.1 fold. Take `CN1[C@@H]2CC[C@H]1C[C@@H](OC(=O)c1c[nH]c3ccccc13)C2` [Tropisetron]: the “Percentage of cell” value in data set [1] (setting [4]) stood at 28.5%. Besides, the “Fold-change — Normalized” value in data set [1] (setting [5]) came to 1.5 fold. `CN1CCc2c(c3ccccc3n2Cc2ccc(C(=O)NO)cc2)C1` [Tubastatin A]: the “Percentage of cell” value in data set [1] (setting [4]) is given as 21.3%. Moreover, the “Fold-change — Normalized” value in data set [1] (setting [5]) is given as 1.1 fold. In the same order, the values of `COc1cc2c(NC3CCN(C)CC3)nc(N3CCCN(C)CC3)nc2cc1OCCCN(C)C` [UNC 0224] are 40.5% and 2.1 fold. On to `COc1cc2c(NC3CCN(C4CCCCC4)CC3)nc(N3CCCN(C(C)C)CC3)nc2cc1OCCCN1CCCCC1` [UNC 0646], for which the “Percentage of cell” value in data set [1] (setting [3]) turned out to be 5.2%. For the same molecule, in data set [1] (nuclear Arc-positive cells relative to DMSO control (BDNF), negative = decrease), the “Fold-change — Normalized” value was -3.7 fold.

Turning to `CCC(C)C(CC)C(N)=O` (stereo not drawn) [Valnoctamide], the “Percentage of cell” value in data set [1] (setting [4]) is recorded as 24.6%. Further, the “Fold-change — Normalized” value in data set [1] (setting [5]) amounted to 1.3 fold. For `CCCC(CCC)C(=O)O` [Valproate], the “Percentage of cell” value in data set [1] (setting [3]) was determined as 8.4%. For the molecule `CCCC(CCC)C(N)=O` [Valpromide], in data set [1] (setting [4]), the “Percentage of cell” value is 19.8%. In addition, the “Fold-change — Normalized” value in data set [1] (setting [5]) stood at 1.0 fold. As to `COc1ccc(C(CN(C)C)C2(O)CCCCC2)cc1` (stereo not drawn) [Venlafaxine], in data set [1], the “Percentage of cell” value came to 12.1%. Regarding `CC[C@]12CCCN3CCc4c(n(c5ccccc45)[C@@](O)(C(=O)OC)C1)[C@@H]32` [Vincamine], the “Percentage of cell” value in data set [1] (setting [4]) is recorded as 19.0%. As for `CCOC(=O)C1=C[C@]2(CC)CCCN3CCc4c(n1c1ccccc41)[C@@H]32` [Vinpocetine], the “Percentage of cell” value in data set [1] (setting [4]) stood at 12.5%. For the molecule `COc1cccc([C@H](O)C2CCN(CCc3ccc(F)cc3)CC2)c1OC` [Volinanserin], in data set [1] (setting [3]), the “Percentage of cell” value amounted to 9.0%. Turning to `O=C(CCCCCCC(=O)Nc1ccccc1)NO` [Vorinostat], in data set [1] (setting [4]), the “Percentage of cell” value is listed as 19.8%. In addition, the “Fold-change — Normalized” value in data set [1] (setting [5]) is recorded as 1.0 fold. As for `Cc1ccc(Sc2ccccc2N2CCNCC2)c(C)c1` [Vortioxetine], the “Percentage of cell” value in data set [1] (setting [3]) is listed as 0.0%. Turning to `COc1ccc(/C=C/c2cc(OC)cc(=O)o2)cc1` [Yangonin], the “Percentage of cell” value in data set [1] (setting [4]) worked out at 29.7%. Besides, the “Fold-change — Normalized” value in data set [1] (setting [5]) stood at 1.5 fold. Turning to `O=C1Cc2cc(CCN3CCN(c4nsc5ccccc45)CC3)c(Cl)cc2N1` [Ziprasidone], the “Percentage of cell” value in data set [1] (setting [3]) was found to be 3.3%. Turning to `CN(C)CCc1c[nH]c2ccc(C[C@H]3COC(=O)N3)cc12` [Zolmitriptan], in data set [1] (setting [4]), the “Percentage of cell” value came out at 42.5%. Also, the “Fold-change — Normalized” value in data set [1] (setting [5]) came out at 2.2 fold.

For `NS(=O)(=O)Cc1noc2ccccc12` [Zonisamide], the “Percentage of cell” value in data set [1] (setting [3]) is given as 9.8%. Consider Bromocryptine, for which the “Percentage of cell” value in data set [1] is 45.0%. The “Fold-change — Normalized” value in data set [1] (setting [5]) was determined as 2.3 fold. Regarding CHIR-98014, in data set [1], the “Fold-change — Normalized” value is -1.0 fold and the “Percentage of cell” value stood at 19.2%. For Dihydroergotoxine mesylate, the “Percentage of cell” value in data set [1] (setting [4]) was found to be 24.3%. Besides, in data set [1] (setting [5]), the “Fold-change — Normalized” value came out at 1.2 fold. As to Eburnamonine (-), the “Percentage of cell” value in data set [1] (setting [4]) turned out to be 18.5%. Also, the “Fold-change — Normalized” value in data set [1] (setting [5]) is -1.1 fold. In the same order, the values of LM22A-4 are 14.0% and -1.4 fold.

B1: WT: wild-type mouse Arc-Myc-FLAG protein overexpressed in Neuro2a cells (protein, UniProt Q9WV31 1-396, looked up)
Activity-regulated …: MELDHMTTGGLHAYPAPRGGPAAKPNVILQIGKCRAEMLEHVRRTHRHLLTEVSKQVERELKGLHRSVGKLENNLDGYVPTGDSQRWKKSIKACLCRCQETIANLERWVKREMHVWREVFYRLERWADRLESMGGKYPVGSEPARHTVSVGVGGPEPYCQEADGYDYTVSPYAITPPPAAGELPEQESVEAQQYQSWGPGEDGQPSPGVDTQIFEDPREFLSHLEEYLRQVGGSEEYWLSQIQNHMNGPAKKWWEFKQGSVKNWVEFKKEFLQYSEGTLSREAIQRELELPQKQGEPLDQFLWRKRDLYQTLYVDAEEEEIIQYVVGTLQPKLKRFLRHPLPKTLEQLIQRGMEVQDGLEQAAEPSGTPLPTEDETEALTPALTSESVASDRTQPE
modifications: Myc-FLAG tag
With B1, in data set [2], the “Estimated t½” value is reported as 2.77 h and the “Fold-change to WT” value is listed as 1.00.

B2: K33Q: acetyl-mimic/unmodifiable mutant Arc-Myc-FLAG, lysine 33 to glutamine (protein, UniProt Q9WV31 1-396, looked up, variant K33Q)
Activity-regulated …: MELDHMTTGGLHAYPAPRGGPAAKPNVILQIGQCRAEMLEHVRRTHRHLLTEVSKQVERELKGLHRSVGKLENNLDGYVPTGDSQRWKKSIKACLCRCQETIANLERWVKREMHVWREVFYRLERWADRLESMGGKYPVGSEPARHTVSVGVGGPEPYCQEADGYDYTVSPYAITPPPAAGELPEQESVEAQQYQSWGPGEDGQPSPGVDTQIFEDPREFLSHLEEYLRQVGGSEEYWLSQIQNHMNGPAKKWWEFKQGSVKNWVEFKKEFLQYSEGTLSREAIQRELELPQKQGEPLDQFLWRKRDLYQTLYVDAEEEEIIQYVVGTLQPKLKRFLRHPLPKTLEQLIQRGMEVQDGLEQAAEPSGTPLPTEDETEALTPALTSESVASDRTQPE
modifications: Myc-FLAG tag
notes: acetyl-mimic/unmodifiable mutant Arc-Myc-FLAG, lysine 33 to glutamine
Regarding B2, in data set [2], the “Estimated t½” value was 2.63 h and the “Fold-change to WT” value was −1.05.

B3: K55Q: acetyl-mimic/unmodifiable mutant Arc-Myc-FLAG, lysine 55 to glutamine (protein, UniProt Q9WV31 1-396, looked up, variant K55Q)
Activity-regulated …: MELDHMTTGGLHAYPAPRGGPAAKPNVILQIGKCRAEMLEHVRRTHRHLLTEVSQQVERELKGLHRSVGKLENNLDGYVPTGDSQRWKKSIKACLCRCQETIANLERWVKREMHVWREVFYRLERWADRLESMGGKYPVGSEPARHTVSVGVGGPEPYCQEADGYDYTVSPYAITPPPAAGELPEQESVEAQQYQSWGPGEDGQPSPGVDTQIFEDPREFLSHLEEYLRQVGGSEEYWLSQIQNHMNGPAKKWWEFKQGSVKNWVEFKKEFLQYSEGTLSREAIQRELELPQKQGEPLDQFLWRKRDLYQTLYVDAEEEEIIQYVVGTLQPKLKRFLRHPLPKTLEQLIQRGMEVQDGLEQAAEPSGTPLPTEDETEALTPALTSESVASDRTQPE
modifications: Myc-FLAG tag
notes: acetyl-mimic/unmodifiable mutant Arc-Myc-FLAG, lysine 55 to glutamine
In the case of B3, in data set [2], the “Estimated t½” value is listed as 2.40 h and the “Fold-change to WT” value is listed as −1.15.
